In series [1] the test system is S. cerevisiae wildtype BY4743. Briefly: growth-inhibitory potency on wildtype S. cerevisiae. As to conditions: Saccharomyces cerevisiae, read-out: IC50 [μM] S. cerevisiae wildtype, cell based growth assay, wildtype.
Another series has as its target Sec14p (Saccharomyces cerevisiae, UniProt P24280). Briefly: in vitro [3H]-PtdIns lipid transfer assay, recombinant Sec14p. In kind it is biochemical, S. cerevisiae. As to conditions: for inhibition of Sec14p-mediated PtdIns-transfer (in words): 20 μM SMI end-point assay.
Series [2] concerns S. cerevisiae BY4743Δ8. Briefly: growth assay, wildtype versus efflux-deficient wildtypeΔ8. In kind it is cell-based, Saccharomyces cerevisiae. Conditions: ratio of growth IC50 wildtype to wildtypeΔ8.
Series [3] deals with mutant Sec14ps (Y151H, V154G, V155A, S173L, S201G). In words: [3H]-PtdIns transfer assay with recombinant mutant Sec14ps. In kind it is biochemical, S. cerevisiae. Conditions: all mutant proteins but one.
The target in the next series is Sec14p of C. albicans (Candida albicans, UniProt P46250). In words: in vitro [3H]-PtdIns lipid transfer assay, C. albicans Sec14p. The class given is biochemical. As to conditions: for inhibition of PtdIns-transfer by C. albicans protein (in words): tested concentration range.
For the next series, the target named is T1, PITPα (Mus musculus, UniProt P53810).
T1 sequence (P53810 1-271): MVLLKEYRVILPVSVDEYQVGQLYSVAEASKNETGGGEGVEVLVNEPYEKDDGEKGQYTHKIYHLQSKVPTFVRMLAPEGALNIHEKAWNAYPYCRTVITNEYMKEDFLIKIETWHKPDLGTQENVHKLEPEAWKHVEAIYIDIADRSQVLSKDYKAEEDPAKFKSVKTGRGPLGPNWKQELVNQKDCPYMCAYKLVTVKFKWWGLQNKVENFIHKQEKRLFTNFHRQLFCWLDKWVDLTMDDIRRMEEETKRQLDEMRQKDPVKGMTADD
Briefly: in vitro [3H]-PtdIns lipid transfer assay, mammalian PITPα. Conditions: 20 μM.

For the next series, the system named is Sec14p^V155A. In words: [3H]-PtdIns transfer assay with recombinant Sec14p V155A. The class given is biochemical, S. cerevisiae.
Series [4] concerns cki1 and kes1 “bypass Sec14p” mutants. Briefly: spot growth assay of bypass Sec14p mutants. In kind it is cell-based, Saccharomyces cerevisiae. As to conditions: 20 μM on agar plates.
The test system of a further series is HCT116 cells. Briefly: CellTiter-Glo luminescent cell viability assay. In kind it is cell-based. Conditions: Homo sapiens, HCT-116, 72 h, read-out: IC50 [μM] HCT116. For orientation: ATP-based viability assays read luminescence as a measure of living cells.
The test system of series [5] is S. cerevisiae SEC14/sec14. In words: growth assay with heterozygous SEC14 deletion strain. In kind it is cell-based, Saccharomyces cerevisiae. Conditions: for IC50: Saccharomyces cerevisiae, SEC14/SEC14, read-out: IC50 [μM] S. cerevisiae SEC14/sec14.
The target of the next series is Sec14p of C. glabrata (Candida glabrata, UniProt P53989). In words: in vitro [3H]-PtdIns lipid transfer assay, C. glabrata Sec14p. The class given is biochemical.
Series [6] in a line: kinetic aqueous solubility. The class given is physicochemical. As to conditions: pH 7.4.
Series [7] has as its system S. cerevisiae BY4743Δ8. In words: MIC on solid medium. Conditions: 72 hours, 30°C. In kind it is cell-based, Saccharomyces cerevisiae.

Experimental findings from article PMC5856591 (Cell chemical biology, 2018) are described below.

Bounds are passed on as bounds.

Sec14p, sequence (P24280 whole entry): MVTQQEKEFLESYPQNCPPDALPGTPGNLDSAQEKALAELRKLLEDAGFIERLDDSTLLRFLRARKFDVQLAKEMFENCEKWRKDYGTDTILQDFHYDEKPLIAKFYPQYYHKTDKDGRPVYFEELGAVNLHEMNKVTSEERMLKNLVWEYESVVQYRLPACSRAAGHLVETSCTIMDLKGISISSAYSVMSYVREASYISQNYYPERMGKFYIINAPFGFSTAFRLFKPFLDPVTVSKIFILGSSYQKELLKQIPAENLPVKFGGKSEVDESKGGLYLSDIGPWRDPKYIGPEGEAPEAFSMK
Sec14p of C. albicans, sequence (P46250 whole entry): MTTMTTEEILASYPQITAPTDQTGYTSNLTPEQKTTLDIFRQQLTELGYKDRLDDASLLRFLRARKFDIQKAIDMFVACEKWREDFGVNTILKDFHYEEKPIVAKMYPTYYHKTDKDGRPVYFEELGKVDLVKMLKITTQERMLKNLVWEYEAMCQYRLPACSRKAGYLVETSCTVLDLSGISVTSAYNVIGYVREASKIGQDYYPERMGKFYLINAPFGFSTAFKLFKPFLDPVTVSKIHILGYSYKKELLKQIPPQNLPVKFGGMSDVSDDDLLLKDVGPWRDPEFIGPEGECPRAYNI
Sec14p of C. glabrata, sequence (P53989 whole entry): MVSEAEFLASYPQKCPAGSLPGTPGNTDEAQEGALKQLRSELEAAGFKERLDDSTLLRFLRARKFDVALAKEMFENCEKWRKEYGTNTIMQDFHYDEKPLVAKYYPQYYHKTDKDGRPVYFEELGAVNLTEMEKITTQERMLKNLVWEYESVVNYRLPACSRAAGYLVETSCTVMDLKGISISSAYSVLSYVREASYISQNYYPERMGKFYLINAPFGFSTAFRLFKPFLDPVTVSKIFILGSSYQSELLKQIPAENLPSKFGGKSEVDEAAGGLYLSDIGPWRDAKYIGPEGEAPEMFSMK

Turning to `O=C(NCc1ccc2c(c1)OCO2)c1ccc(Br)cc1F` [Compound 3], the values for the IC50 (in series [1]; in the series on HCT116 cells; in [5]) were 7 µM, over 100 µM and 1.7 µM, respectively. Besides, the “inhibition of Sec14p-mediated PtdIns-transfer (in words)” value at Sec14p is recorded as “clear inhibition”. In addition, the “fold IC50 shift S. cerevisiae wildtype/wildtypeΔ8” value with S. cerevisiae BY4743Δ8 [2] worked out at 2.8x fold. For the same molecule, the “sensitivity of mutant Sec14ps other than V155A (in words)” value in [3] is recorded as “essentially indifferent”. Further, the “inhibition of PtdIns-transfer by C. albicans protein (in words)” value against Sec14p of C. albicans is “did not inhibit”. In addition, the “inhibition of PtdIns-transfer by mammalian PITPα (in words)” value on PITPα was “no such inhibitory effects”. In addition, in the series on Sec14p^V155A, the “increase in IC50 of Sec14p^V155A relative to wild-type Sec14p” value was 17 fold. The “growth of bypass Sec14p mutants under compound challenge (in words)” value in series [4] is “indifferent to challenge”. In addition, in series [5], the “fitness of SEC14/sec14Δ heterozygote relative to isogenic wildtype (in words)” value was “decreased fitness”.
Regarding `O=C(NCc1ccc2c(c1)OCO2)c1ncc(Br)cc1F` [Compound 2], the IC50 is 28.5 µM in series [1]; 6.7 µM at Sec14p; 10.9 µM on Sec14p of C. glabrata; over 100 µM at Sec14p of C. albicans; over 100 µM with HCT116 cells; 9.4 µM in [5]. Moreover, at Sec14p, the “inhibition of Sec14p-mediated PtdIns-transfer (in words)” value is reported as “clear inhibition”. For the same molecule, the “fold IC50 shift S. cerevisiae wildtype/wildtypeΔ8” value in the series on S. cerevisiae BY4743Δ8 [2] is given as 2.7x fold. Besides, the “inhibition of PtdIns-transfer by C. albicans protein (in words)” value against Sec14p of C. albicans is listed as “did not inhibit”. For the same molecule, the “inhibition of PtdIns-transfer by mammalian PITPα (in words)” value against PITPα is given as “no such inhibitory effects”. Also, in series [4], the “growth of bypass Sec14p mutants under compound challenge (in words)” value is “indifferent to challenge”. Also, the “solubility in pure aqueous solutions (in words)” value in series [6] is recorded as “better solubility than compound 3”. In series [5], the “fitness of SEC14/sec14Δ heterozygote relative to isogenic wildtype (in words)” value is reported as “decreased fitness”.
For `CC[C@@H]([C@H](C)O)n1ncn(-c2ccc(N3CCN(c4ccc(OC[C@@H]5CO[C@@](Cn6cncn6)(c6ccc(F)cc6F)C5)cc4)CC3)cc2)c1=O` [Posaconazole], the “Minimal inhibitory concentration S. cerevisiae BY4743Δ8” value in the series with S. cerevisiae BY4743Δ8 [7] is under 0.3 µM.
